Literature values as cited in patent US6586473B1, “Topical drug delivery composition and method” (Medicis Pharmaceutical Corporation, priority 1989, dated 2003).

Test system: photoaged skin

In the case of `CC1=C(/C=C/C(C)=C/C=C/C(C)=C/C(=O)O)C(C)(C)CCC1` [tretinoin, all trans-retinoic acid], the “effects of photoaging (wrinkling, sallowness, roughness, mottled pigmentation)” value (0.1% cream daily for sixteen weeks) is given as “can improve the effects of photoaging”, the “dermatitis as a result of treatment” value (0.1% tretinoin cream, topical) is given as “most patients experience dermatitis” and the “duration of initial dermatitis (xerosis, peeling, subjective irritation)” value (0.1% tretinoin cream, topical) is given as “two weeks to three months”.
